Data: patent US8546373B2 (Biogenic Innovations, LLC, priority 2009, dated 2013)

Tested on: Streptococcus pneumonia
Conditions: 7 h, 5 %

SMILES: C[S+](C)[O-] [DMSO, dimethyl sulfoxide]
- reduction in viability: approximately 25%
